The numbers were not newly measured in US20250230139A1, “Novel Process and Intermediate for the Preparation of Apalutamide” (BDR Lifesciences Private Limited, priority 2022, published 2025), which cites them from elsewhere.

One data set has as its system prostate cancer. The following applies: mouse xenograft models of prostate cancer.
The conditions of data set [1]: strong base (pH>11).
For data set [2] the following is noted: acidic carboxamide moiety.
For data set [3] the following is noted: powder.

As for `CNC(=O)c1ccc(N2C(=S)N(c3cnc(C#N)c(C(F)(F)F)c3)C(=O)C23CCC3)cc1F` [Apalutamide, 4-[7-[6-cyano-5-(trifluoromethyl)pyridin-3-yl]-8-oxo-6-thioxo-5,7-diazaspiro[3.4]octan-5-yl]-2-fluoro-N-methylbenzamide], in the data set on prostate cancer, the apoptosis result is “increased apoptosis”, the tumor cell proliferation entry is recorded as “decreased tumor cell proliferation” and the tumor volume result was “decreased tumor volume”. Besides, the “stability to strong base” value in data set [1] is listed as “unstable”. The “solubility in aqueous media” value (aqueous media over a wide range of pH values) is on record as “practically insoluble”. For the same molecule, under “organic solvents”, the “solubility in organic solvents” value is listed as “practically insoluble to very soluble”. Moreover, in data set [2], the “dissociation constant pKa” value is listed as 9.7. Further, the hygroscopicity result in data set [3] was “non-hygroscopic”.
